Read-outs that look alike come from different tables or passages of the source.
How the values were obtained:
[1] = system: SK-OV-3 (human ovarian cancer cells); assay: Antiproliferative SRB assay, SK-OV-3; assay type: cell-based
Method: (§1) Cell Culture. Various representative cancer and other cell lines were sourced and grown as described previously [Mooberry, S. L., et al., Mol. Pharm. 72, 132-140 (2007)]. MDA-MB-435 (human melanoma cancer cells), and MDA-MB-231 (human breast cancer cells) were grown in IMEM Richter's Medium (Life Technologies, Grand Island, N.Y.) with 10% FBS (Hyclone, Logan, Utah) and 25 μg/mL gentamicin sulfate (Life Technologies). A-10 (embryonic rat vascular smooth muscle cells) and HeLa (human cervical cancer cells), SK-OV-3 (human ovarian cancer cells) and SK-OV-3-MDR-1-M6/6 (a clone of the SK-OV-3 that was generated from SK-OV-3 cells by adenovirus-mediated expression of MDR1) were grown in Basal Medium Eagle (BME, Sigma-Aldrich, St. Louis, Mo.) containing Earle's salts, 50 μg/ml gentamicin sulfate, and 10% FBS. HeLa cells (a single-cell clone derived from transduction of HeLa cells with wild-type (WT) βIII-tubulin) were grown in Dulbecco's Modified Eagle's Medium (DMEM, Life Technologies) containing 50 μg/mL gentamicin sulfate and 10% FBS.
(§2) Antiproliferative Effects. The pyrrole compounds were evaluated for their antiproliferative effects in a panel of cancer cell lines. Cells were plated into 96-well plates at predetermined densities and allowed to attach and proliferate for 24 hr, and then the compounds were added. After a 48 hr exposure to the compounds, the cells were fixed with trichloroacetic acid and cellular protein was determined using the sulforhodamine B (SRB) assay (Skehan et al., J. Natl. Cancer Inst. 82, 1107-12, (1990); Boyd and Paull Drug Devel. Res. 34, 91-109, (1995)). Concentration response curves were constructed, and the IC50 (the concentration required to inhibit proliferation by 50%) values were determined from the linear portions of the log concentration-response curves as described previously [Tinley, T. L., et al., Cancer Res. 63, 3211-3220, (2003)] as shown in Table 48.
(§3) First, drug resistance mediated by the expression of βIII tubulin was evaluated in an isogenic HeLa cell line pair. Expression of the βIII tubulin isotype is associated with clinical drug resistance to the taxanes in ovarian cancer, non small-cell lung cancer and breast cancer [Galmarini, C. M., et al., Clin. Cancer Res. 14, 4511-4516 (2008)]. Secondly, drug resistance mediated by the expression of the drug efflux pump protein, Pgp, was evaluated in the isogenic SK-OV-3 cell line pair. […] All tubulin-binding anticancer drugs used currently in the clinic, except cabazitaxel, are substrates for Pgp, thus limiting their utility in drug resistant tumors [Penson, R. T., et al., Gynecol. Oncol. 93, 98-106 (2004)]. Differences in sensitivity between the parent and transformed cell line, indicative of resistance, was determined by calculating relative resistance (Rr) values in the two pairs of isogenic cell lines (dividing the IC50 of the expressing cell line by the IC50 of the parental cell line).

[2] = system: MDA-MB-435 (human melanoma cancer cells); assay: Antiproliferative SRB assay, MDA-MB-435; assay type: cell-based; conditions: read-out: MDA-MB-435 Anti-Proliferative Activity, IC50
Method: as §1, §2

SK-OV-3-MDR-1-6/6 cells = assay: Antiproliferative SRB assay, Pgp expressing SK-OV-3; assay type: cell-based, human; conditions: for IC50: Table 49, Pgp expressing line, 48 hr, SRB assay; for Rr (Pgp): relative resistance: IC50 of expressing line divided by IC50 of parental SK-OV-3
Method: as §1, §2, §3

[3] = system: HeLa (human cervical cancer cells); assay: Antiproliferative SRB assay, HeLa; assay type: cell-based
Method: as §1, §2
(§4) First, drug resistance mediated by the expression of βIII tubulin was evaluated in an isogenic HeLa cell line pair. Expression of the βIII tubulin isotype is associated with clinical drug resistance to the taxanes in ovarian cancer, non small-cell lung cancer and breast cancer [Galmarini, C. M., et al., Clin. Cancer Res. 14, 4511-4516 (2008)]. Secondly, drug resistance mediated by the expression of the drug efflux pump protein, Pgp, was evaluated in the isogenic SK-OV-3 cell line pair. The expression of Pgp can lead to lower intracellular drug concentrations and diminished cytotoxic effects both in vitro and in vivo. All tubulin-binding anticancer drugs used currently in the clinic, except cabazitaxel, are substrates for Pgp, thus limiting their utility in drug resistant tumors [Penson, R. T., et al., Gynecol. Oncol. 93, 98-106 (2004)]. Differences in sensitivity between the parent and transformed cell line, indicative of resistance, was determined by calculating relative resistance (Rr) values in the two pairs of isogenic cell lines (dividing the IC50 of the expressing cell line by the IC50 of the parental cell line).

HeLa WT-β-III cells = assay: Antiproliferative SRB assay, βIII-tubulin expressing HeLa; assay type: cell-based, human; conditions: for IC50: Table 49, βIII tubulin expressing line, 48 hr, SRB assay; for Rr (β-III): relative resistance: IC50 of expressing line divided by IC50 of parental HeLa
Method: as §1, §2, §4

A-10 cells = assay: Cellular microtubule loss by indirect immunofluorescence; assay type: cell-based, rat; conditions: read-out: EC50 Values (nM) for Microtubule Loss in A-10 cells
Method: The effects of representative compounds on cellular microtubules were evaluated in A-10 (embryonic rat vascular smooth muscle cell line) cells using indirect immunofluorescence techniques as previously described (Tinley et al., Cancer Res. 63, 3211-20 (2003)). Cells were visualized using a Nikon Eclipse 80i fluorescence microscope and NIS Elements software. Changes in both interphase and mitotic microtubules were noted and photographed. The EC50 values, the concentration that causes approximately 50% loss of interphase microtubules was determined by evaluating a range of concentrations of each compound and the percent cellular microtubule depolymerization that was observed visually at each concentration was noted.
Microtubules were visualized by indirect immunofluorescence using a β-tubulin antibody, and the DNA was visualized with DAPI. A representative concentration response curve for NT-7-16 is also shown in FIG. 1 that was used to calculate its corresponding EC50 for microtubule loss. Concentration response curves for microtubule loss were plotted using data from at least three experiments for each compound and the corresponding EC50 values for microtubule loss are presented in Table 50.

[4] = Table 49, parental line, 48 hr, read-out: SK-OV-3 IC50
[5] = Table 49, parental line, 48 hr, read-out: HeLa IC50
[6] = Table 50, concentration causing approximately 50% loss of interphase microtubules
[7] = Homo sapiens, SK-OV-3, Table 48, 48 hr exposure, read-out: SK-OV-3 Anti-Proliferative Activity, IC50
[8] = Homo sapiens, SK-OV-3, Table 49, parental line, 48 hr, read-out: SK-OV-3 IC50
[9] = Homo sapiens, MDA-MB-435, Table 48, 48 hr exposure, SRB assay
[10] = Homo sapiens, MDA-MB-435, Table 52
[11] = Homo sapiens, HeLa, Table 48, 48 hr exposure, read-out: HeLa Anti-Proliferative Activity, IC50
[12] = Homo sapiens, HeLa, Table 49, parental line, 48 hr, read-out: HeLa IC50
[13] = Rattus norvegicus, A10, Table 50, concentration causing approximately 50% loss of interphase microtubules

Compound | Rr (Pgp) (SK-OV-3-MDR-1-6/6 cells) | Rr (β-III) (HeLa WT-β-III cells) | melting point [°C] | IC50 [1, 7] [nM] | IC50 [1, 8] [nM] | IC50 [2, 9] [nM] | IC50 [2, 10] [nM] | IC50 (SK-OV-3-MDR-1-6/6 cells; Homo sapiens, SK-OV-3) [nM] | IC50 [3, 11] [nM] | IC50 [3, 12] [nM] | IC50 (HeLa WT-β-III cells; Homo sapiens, HeLa) [nM] | EC50 (A-10 cells; [13]) [nM] | further results
CCOC(=O)c1[nH]c(C=NO)c(-c2ccc(OC)c(OC)c2OC)c1Br [Example 10c] | 1.8 | 1.4 |  |  |  |  |  |  |  |  |  |  | IC50 [1, 4]: 23.1 ± 0.5 nM; IC50 ([2]; Table 52): 14 ± 0.8 nM; IC50 (SK-OV-3-MDR-1-6/6 cells): 41.6 ± 1.9 nM; IC50 [3, 5]: 18 ± 0.9 nM; IC50 (HeLa WT-β-III cells): 25 ± 1.4 nM; EC50 (A-10 cells; [6]): 56.2 nM; EC50 (A-10 cells; Table 52): 56.2 nM
CCOC(=O)c1cc(-c2ccc(OC)c(OC)c2OC)c(C=O)[nH]1 [Example 1, 4-(2,3,4-trimethoxyphenyl)-5-formyl-1H-pyrrole 2-carboxylic acid ethyl ester] |  |  | 138 to 140 |  |  |  |  |  |  |  |  |  | 
CCOC(=O)c1[nH]c(CNCCN)c(-c2ccc(OC)c(OC)c2OC)c1Br [Example 20, 5-[N-((2-Aminoethyl)amino)methyl]-3-Bromo-4-(2,3,4-trimethoxyphenyl)-1H-pyrrole 2-carboxylic acid ethyl ester] |  |  | 135 to 137 |  |  |  |  |  |  |  |  |  | 
CCOC(=O)c1[nH]c(CO)c(-c2ccc(OC)c(OC)c2OC)c1Br [Example 5, 3-Bromo-5-(hydroxymethyl)-4-(2,3,4-trimethoxyphenyl)-1H-pyrrole 2-carboxylic acid ethyl ester] | 1.2 | 0.8 |  | 37.4 ± 1.3 | 37.4 ± 1.3 | 25.7 ± 0.8 | 25.7 ± 0.8 | 46.6 ± 2.1 | 33.4 ± 0.8 | 33.4 ± 0.8 | 27.4 ± 3.1 | 76 | 
Cis-3-Bromo-4-(2,3,4-trimethoxyphenyl)-5-oximino-1H-pyrrole 2-carboxylic acid ethyl ester [Example 10b] | 1.5 | 1.1 |  |  |  |  |  |  |  |  |  |  | IC50 ([1]; Table 48, 48 hr exposure, read-out: SK-OV-3 Anti-Proliferative Activity, IC50): 33.7 ± 1.3 nM; IC50 [1, 4]: 33.7 ± 1.3 nM; IC50 ([2]; Table 48, 48 hr exposure, SRB assay): 25.3 ± 3.1 nM; IC50 ([2]; Table 52): 25.3 ± 3.1 nM; IC50 (SK-OV-3-MDR-1-6/6 cells): 49.6 ± 2.4 nM; IC50 ([3]; Table 48, 48 hr exposure, read-out: HeLa Anti-Proliferative Activity, IC50): 29.4 ± 1 nM; IC50 [3, 5]: 29.4 ± 1 nM; IC50 (HeLa WT-β-III cells): 31.3 ± 0.5 nM; EC50 (A-10 cells; [6]): 108 nM; EC50 (A-10 cells; Table 52): 108 nM
CCOC(=O)c1[nH]c(CNCCNC(=O)OC(C)(C)C)c(-c2ccc(OC)c(OC)c2OC)c1Br [Example 19, 3-Bromo-5-[((N-2-tert-butoxycarbonylamino)-ethylamino)-methyl]-4-(2,3,4-trimethoxyphenyl)-1H-pyrrole 2-carboxylic acid ethyl ester] |  |  | 235 to 237 |  |  |  |  |  |  |  |  |  | 
CCOC(=O)c1[nH]c(/C=C/C(=O)OC)c(-c2ccc(OC)c(OC)c2OC)c1Br [Example 8b, Trans-3-Bromo-5-(3-methoxy-3-oxoprop-1-en-1-yl)-4-(2,3,4-trimethoxyphenyl)-1H-pyrrole-2-carboxylic acid ethyl ester] | 1.2 | 1.8 |  | 22.3 ± 0.5 | 22.3 ± 0.5 | 9.3 ± 0.3 | 9.3 ± 0.3 | 26.7 ± 0.3 | 10.9 ± 0.3 | 10.9 ± 0.3 | 19.4 ± 0.4 | 24 | 
CCOC(=O)c1[nH]c(/C=C\C(=O)OC)c(-c2ccc(OC)c(OC)c2OC)c1Br [Example 8a, Cis-3-Bromo-5-(3-methoxy-3-oxoprop-1-en-1-yl)-4-(2,3,4-trimethoxyphenyl)-1H-pyrrole-2-carboxylic acid ethyl ester] | 0.6 | 1.8 |  | 16.4 ± 0.9 | 16.4 ± 0.9 | 23.9 ± 1.2 | 23.9 ± 1.2 | 10.4 ± 0.9 | 14.8 ± 0.2 | 14.8 ± 0.2 | 26 ± 1 | 55 | 
C=Cc1[nH]c(C(=O)OCC)c(Br)c1-c1ccc(OC)c(OC)c1OC [Example 7, 3-Bromo-5-vinyl-4-(2,3,4-trimethoxyphenyl)-1H-pyrrole 2-carboxylic acid ethyl ester] | 1.1 | 0.9 |  | 26.6 ± 1.1 | 26.6 ± 1.1 | 17.6 ± 1 | 17.6 ± 1 | 28.1 ± 1.9 | 23.8 ± 1.7 | 23.8 ± 1.7 | 20.5 ± 0.8 | 54 | 
